According to PubChem BioAssay (NCI):
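How tested: cells in 96-well plates exposed to compound for 48 hours at five concentrations. The concentration for 50% growth inhibition is given as GI50. The concentration for full growth arrest is given as TGI.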

Columns and labels:
Experiment in all cases: inhibition of tumour cell growth, NCI panel, 48 h
IGROV1 ovarian = test system: IGROV1 ovarian
KM12 colon = test system: KM12 colon
NCI-H522 lung = test system: NCI-H522 lung
OVCAR-3 ovarian = test system: OVCAR-3 ovarian
OVCAR-4 ovarian = test system: OVCAR-4 ovarian
RXF 393 renal = test system: RXF 393 renal
SK-MEL-2 melanoma = test system: SK-MEL-2 melanoma
SR leukemia = test system: SR leukemia
UACC-257 melanoma = test system: UACC-257 melanoma
UO-31 renal = test system: UO-31 renal

| Structure (SMILES) | GI50 (IGROV1 ovarian) | GI50 (KM12 colon) | GI50 (NCI-H522 lung) | GI50 (OVCAR-3 ovarian) | TGI (OVCAR-3 ovarian) | GI50 (OVCAR-4 ovarian) | TGI (OVCAR-4 ovarian) | GI50 (RXF 393 renal) | TGI (RXF 393 renal) | GI50 (SK-MEL-2 melanoma) | TGI (SK-MEL-2 melanoma) | GI50 (SR leukemia) | TGI (SR leukemia) | GI50 (UACC-257 melanoma) | TGI (UACC-257 melanoma) | GI50 (UO-31 renal) | TGI (UO-31 renal) | TGI (IGROV1 ovarian) | TGI (KM12 colon) | TGI (NCI-H522 lung) |
| --- | --- | --- | --- | --- | --- | --- | --- | --- | --- | --- | --- | --- | --- | --- | --- | --- | --- | --- | --- | --- |
| COc1cc2c(c(OC)c1OC)-c1ccc(N=NC(N)=S)c(=O)cc1[C@@H](NC(C)=O)CC2 | 0.482 µM | 0.394 µM | 0.354 µM | 0.263 µM | 0.642 µM | 1.43 µM | > 100 µM | 0.937 µM | > 100 µM | 0.393 µM | > 100 µM | 0.408 µM | > 100 µM | > 100 µM | > 100 µM | 6.92 µM | > 100 µM |  |  |  |
| Cc1cc(Cl)ccc1C(=O)c1ccc2ccccc2c1C(=O)O |  |  |  |  | > 100 µM |  | > 100 µM |  | > 100 µM |  | > 100 µM |  | > 100 µM |  | > 100 µM |  | > 100 µM | > 100 µM | > 100 µM | > 100 µM |
| COc1ccc(C(=O)C#Cc2c[nH]c(=O)[nH]c2=O)cc1 |  |  |  |  | 21.6 µM |  | 33.1 µM |  | 18.3 µM |  | 21.4 µM |  | 8.38 µM |  | 27.4 µM |  | 35.2 µM | > 62.9 µM | > 52.6 µM | 10.6 µM |
| CC1OC(CC(=O)O)CC2=C1C(=O)c1c(O)cccc1C2=O (configuration not stated) |  |  |  |  | 0.299 µM |  | 0.742 µM |  | 0.103 µM |  | 1.14 µM |  | 0.159 µM |  | 0.228 µM |  | 1.07 µM | 0.721 µM | 3.49 µM | < 0.0251 µM |
| O=c1c2cc3c(cc2c2cccc4c2n1CCC4)OCO3 |  |  |  |  | > 100 µM |  | > 100 µM |  | 92.2 µM |  | > 100 µM |  | 91.3 µM |  | > 100 µM |  | > 100 µM | > 100 µM | > 100 µM | 42 µM |
| Cn1cc(C(=O)c2ccccc2)cc(C(=O)c2ccccc2)c1=O |  |  |  |  | > 100 µM |  | > 100 µM |  | > 100 µM |  | > 100 µM |  | > 100 µM |  | > 100 µM |  | > 100 µM | > 100 µM | > 100 µM | > 100 µM |
| Cc1cccc2c3c(sc12)C(c1ccc(F)cc1)C(C#N)=C(N)O3 (configuration not stated) | 0.0744 µM | 0.064 µM | 0.0353 µM | 0.0401 µM | 1.85 µM | 0.528 µM | 17.1 µM | 0.0271 µM | 0.0825 µM | 1.7 µM | 21.6 µM | 0.0462 µM | 20.2 µM | 10.6 µM | 36.8 µM | 0.286 µM | 15.5 µM | 11.2 µM | 11.1 µM | 1.49 µM |
| COc1cccc(SSc2cccc(OC)c2C(=O)O)c1C(=O)O |  |  |  |  | > 100 µM |  | > 100 µM |  | > 100 µM |  | > 100 µM |  | > 100 µM |  | > 100 µM |  | > 100 µM | > 100 µM | > 100 µM | > 100 µM |
| CC1=Nc2c([nH]c(=S)[nH]c2=O)NC(c2c(Cl)cccc2Cl)C1 (configuration not stated) |  |  |  |  | 4.16 µM |  | 9.09 µM |  | 9.91 µM |  | 32.9 µM |  | 1.68 µM |  | 9.4 µM |  | 10.2 µM | 5.45 µM | 4.51 µM | 7.33 µM |
| COc1cc(Cl)cc(-c2nn(-c3cccc(NC(=O)Nc4ccc(Cl)c(Cl)c4)c3)cc2-c2ccncc2)c1 | 4.35 µM | 2.02 µM | 1.29 µM | 1.56 µM | 29.4 µM | 2.85 µM | 53.8 µM | 1.96 µM | 7.25 µM | 1.64 µM | 3.74 µM | 1.54 µM | 5.8 µM | 1.84 µM | 5.19 µM | 1.89 µM | 18.2 µM | > 100 µM | 10.8 µM | 4.48 µM |
| Cc1nc2ccccc2nc1N=Nc1ccccc1 | 9.58 µM | 11.9 µM | 20.4 µM | 12.9 µM | 82.1 µM | 16.5 µM | > 100 µM | 23.4 µM | > 100 µM | 24 µM | 61.3 µM | 19 µM | > 100 µM | 25.2 µM | 73.4 µM | 7.99 µM | > 100 µM | > 100 µM | 93.5 µM | 63.1 µM |
| COCCOCCOCc1n(Cc2ccc3ccccc3n2)c2ccccc2[n+]1Cc1ccc2ccccc2n1 | 0.645 µM | 0.502 µM | 0.415 µM | 0.479 µM | 13.8 µM | 0.373 µM | 13.3 µM | 1.23 µM | 9.7 µM | 0.447 µM | 2.39 µM | 0.663 µM | 11.8 µM | 0.277 µM | 3.73 µM | 12.1 µM | 36.2 µM | 11.8 µM | 6.13 µM | 11.1 µM |
| COC(=O)[C@H](Cc1cn(C)cn1)NC(=O)[C@H](C)NC(=O)Nc1cc(C(F)(F)F)cc(C(F)(F)F)c1 | > 10 µM | > 10 µM | > 10 µM | > 10 µM | > 10 µM | > 10 µM | > 10 µM | > 10 µM | > 10 µM | > 10 µM | > 10 µM | > 10 µM | > 10 µM | > 10 µM | > 10 µM | > 10 µM | > 10 µM | > 10 µM | > 10 µM | > 10 µM |
| CCN1C(=NCCO)NS(=O)(=O)c2ccccc21 |  |  |  |  | > 100 µM |  | > 100 µM |  | > 100 µM |  | > 100 µM |  | > 100 µM |  | > 100 µM |  | > 100 µM | > 100 µM | > 100 µM | > 100 µM |
| CCOC(=O)Nc1cc2ccccc2c(N=Nc2ccccc2)c1O |  |  |  |  | > 100 µM |  | 49.3 µM |  | 69.4 µM |  | > 100 µM |  | > 100 µM |  | > 100 µM |  | > 100 µM | > 100 µM | > 100 µM | > 100 µM |
| CC(=O)OC1=CC2(OC(C)=O)CC(C)(C)C1C1C(=O)C=CC(=O)C12 (configuration not stated) |  |  |  |  | > 100 µM |  | > 100 µM |  | > 100 µM |  | > 100 µM |  | > 100 µM |  | > 100 µM |  | > 100 µM | > 100 µM | > 100 µM | > 52.4 µM |
